In article PMC6557688 (FEBS letters, 2019):

Target: recombinant Nudt7 (Mus musculus, UniProt Q99P30)
Test: CoA diphosphohydrolase assay, protein curves
Format: biochemical
Conditions: MgCl2 or MnCl2

Chain of recombinant Nudt7 (Q99P30 whole entry): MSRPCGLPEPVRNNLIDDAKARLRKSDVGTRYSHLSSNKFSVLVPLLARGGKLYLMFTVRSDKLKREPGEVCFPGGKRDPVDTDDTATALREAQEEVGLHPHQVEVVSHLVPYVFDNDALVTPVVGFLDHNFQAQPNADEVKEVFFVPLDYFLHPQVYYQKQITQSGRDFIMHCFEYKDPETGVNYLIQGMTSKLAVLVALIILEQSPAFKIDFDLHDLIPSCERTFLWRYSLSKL

## CC(C)(COP(=O)(O)OP(=O)(O)OC[C@H]1O[C@@H](n2cnc3c(N)ncnc32)[C@H](O)[C@@H]1OP(=O)(O)O)[C@@H](O)C(=O)NCCC(=O)NCCS [Free CoA]
  CoA diphosphohydrolase assay, protein curves: the specific activity of Nudt8 against free CoA was comparable to that of Nudt7
